From PubChem BioAssay AID330 (DTP/NCI, 2004) come the findings set out here.

Where “and” joins values, the source holds several entries; their conditions need not be identical. Identical values can stand only once. Toxic doses and inconclusive results are not listed.

For the assay, the system named is P388 leukemia ip, CD2F1 mice, survival T/C. The assay is described as follows: NCI In Vivo Anticancer Drug Screen. Data for tumor model P388 Leukemia (intraperitoneal) in CD2F1 (CDF1) mice. As to conditions: endpoint: median survival time, higher = longer survival. The method in brief: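 Mice carrying the transplanted tumor received test compound or vehicle. Survival was recorded in each group, and the value is the treated-group measurement divided by that of the vehicle-treated control group.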

The mark [1] stands for this setting: dose: 50.0 mg/kg/injection, schedule: Q01DX009 (ip), vehicle: Klucel (hydroxypropylcellulose) (HPC).
[2] abbreviates: dose: 100.0 mg/kg/injection, schedule: Q01DX009 (ip), vehicle: Klucel (hydroxypropylcellulose) (HPC).
Setting [3] is: dose: 200.0 mg/kg/injection, schedule: Q01DX009 (ip), vehicle: Klucel (hydroxypropylcellulose) (HPC).
Where [4] appears, read: dose: 50.0 mg/kg/injection, schedule: Q04DX003 (ip), vehicle: saline with Tween-80.
The mark [5] stands for this setting: dose: 100.0 mg/kg/injection, schedule: Q04DX002 (ip), vehicle: Klucel (hydroxypropylcellulose) (HPC).
The mark [6] stands for this setting: dose: 200.0 mg/kg/injection, schedule: Q04DX002 (ip), vehicle: Klucel (hydroxypropylcellulose) (HPC).
[7] abbreviates: dose: 400.0 mg/kg/injection, schedule: Q04DX002 (ip), vehicle: Klucel (hydroxypropylcellulose) (HPC).
The mark [8] stands for this setting: dose: 100.0 mg/kg/injection, schedule: Q01DX009 (ip), vehicle: saline.

Consider `CCOC(=O)CNc1sc(=S)[nH]c1C(=O)OCC`, for which the T/C (dose: 50.0 mg/kg/injection, schedule: Q01DX005 (ip), vehicle: Klucel (hydroxypropylcellulose) (HPC)) is 100 % of control; the T/C (dose: 100.0 mg/kg/injection, schedule: Q01DX005 (ip), vehicle: Klucel (hydroxypropylcellulose) (HPC)) is 91 % of control; the T/C (dose: 200.0 mg/kg/injection, schedule: Q01DX005 (ip), vehicle: Klucel (hydroxypropylcellulose) (HPC)) is 92 % of control.
`CCNc1ccc2c(c1)C(=O)N(OS(C)(=O)=O)C2=O`: the T/C (dose: 50.0 mg/kg/injection, schedule: Q01DX005 (ip), vehicle: saline with Tween-80) is 97 % of control and the T/C (dose: 100.0 mg/kg/injection, schedule: Q01DX005 (ip), vehicle: saline with Tween-80) is 92 % of control.
For `COc1cccc(C)c1C1CC2CCCN2O1` (stereo unspecified), the T/C reads like this: under setting [1], 105 % of control; under setting [2], 106 % of control; under setting [3], 89 % of control.
Regarding `Cc1ccc2ncc(C)c(/C=C/c3ccc(N(C)C)cc3)c2c1`, the T/C is 108 % of control (dose: 50.0 mg/kg/injection, schedule: Q01DX001 (ip), vehicle: saline with Tween-80); 112 % of control (dose: 100.0 mg/kg/injection, schedule: Q01DX001 (ip), vehicle: saline with Tween-80); 122 % of control (dose: 200.0 mg/kg/injection, schedule: Q01DX001 (ip), vehicle: saline with Tween-80).
`COc1cccc2c1C(=O)c1c(O)c3c(c(O)c1C2=O)C[C@@](O)(/C(C)=N/NC(=O)c1ccc(-c2ccccc2)cc1)C[C@@H]3OC1CC(N)C(O)C(C)O1` (stereo partly specified): the T/C was 107 % of control (dose: 0.12 mg/kg/injection, schedule: Q01DX009 (ip), vehicle: water); 151 % of control (dose: 0.5 mg/kg/injection, schedule: Q01DX009 (ip), vehicle: water); 157 % of control (dose: 1.0 mg/kg/injection, schedule: Q01DX009 (ip), vehicle: water); 163 % of control and 169 % of control (dose: 2.0 mg/kg/injection, schedule: Q01DX009 (ip), vehicle: water); 192 % of control (dose: 3.13 mg/kg/injection, schedule: Q01DX009 (ip), vehicle: water); 190 % of control (dose: 4.0 mg/kg/injection, schedule: Q01DX009 (ip), vehicle: water). The T/C runs as follows: (dose: 6.0 mg/kg/injection, schedule: Q04DX003 (ip), vehicle: water) 106 % of control; (dose: 6.25 mg/kg/injection, schedule: Q01DX001 (ip), vehicle: water) 151 % of control; (dose: 6.25 mg/kg/injection, schedule: Q01DX009 (ip), vehicle: water) 109 % of control; (dose: 8.0 mg/kg/injection, schedule: Q01DX009 (ip), vehicle: water) 98 % of control and 91 % of control; (dose: 12.5 mg/kg/injection, schedule: Q01DX001 (ip), vehicle: water) 163 % of control; (dose: 24.0 mg/kg/injection, schedule: Q04DX003 (ip), vehicle: water) 165 % of control. Besides, the T/C was 116 % of control (dose: 25.0 mg/kg/injection, schedule: Q01DX001 (ip), vehicle: water) and 98 % of control (dose: 96.0 mg/kg/injection, schedule: Q04DX003 (ip), vehicle: water).
As for `N#Cc1c(=O)[nH]nc2c3ccccc3c3ccccc3c12`, the T/C was 92 % of control (dose: 100.0 mg/kg/injection, schedule: Q04DX002 (ip), vehicle: saline with Tween-80); 95 % of control (dose: 200.0 mg/kg/injection, schedule: Q04DX002 (ip), vehicle: saline with Tween-80); 96 % of control (dose: 400.0 mg/kg/injection, schedule: Q04DX002 (ip), vehicle: saline with Tween-80).
Regarding `COC(=O)C1C(O)CCC2CN3CCc4c([nH]c5cc(OC)ccc45)C3CC21` (stereo unspecified), the T/C reads like this: (dose: 20.0 mg/kg/injection, schedule: Q01DX005 (ip), vehicle: DMSO) 104 % of control; (dose: 40.0 mg/kg/injection, schedule: Q01DX005 (ip), vehicle: DMSO) 111 % of control; (dose: 80.0 mg/kg/injection, schedule: Q01DX005 (ip), vehicle: DMSO) 102 % of control; (dose: 160.0 mg/kg/injection, schedule: Q01DX005 (ip), vehicle: DMSO) 100 % of control.
On to `C=CC1CC[N-]CC1.C=CC1CC[N-]CC1.C=CC1CC[N-]CC1.[Cl][Cr]([Cl])[Cl]`, for which the T/C reads like this: (dose: 12.5 mg/kg/injection, schedule: Q04DX003 (ip), vehicle: saline with Tween-80) 100 % of control; (dose: 25.0 mg/kg/injection, schedule: Q04DX003 (ip), vehicle: saline with Tween-80) 100 % of control; under setting [4], 100 % of control.
As to `Nc1nc(=O)n(C2CC(O)C(CO)O2)cc1Br` (stereo unspecified), the T/C is 91 % of control (dose: 100.0 mg/kg/injection, schedule: Q04DX003 (ip), vehicle: saline); 100 % of control (dose: 200.0 mg/kg/injection, schedule: Q04DX003 (ip), vehicle: saline); 104 % of control (dose: 400.0 mg/kg/injection, schedule: Q04DX003 (ip), vehicle: saline).
On to `CCOC(=O)C(Cc1ccc(N(CCCl)CCCl)cc1)NC(=O)CNC(C)=O` (stereo unspecified), for which the T/C is, setting by setting: (dose: 0.5 mg/kg/injection, schedule: Q04DX003 (ip), vehicle: saline with Tween-80) 113 % of control; (dose: 1.0 mg/kg/injection, schedule: Q04DX003 (ip), vehicle: saline with Tween-80) 104 % of control; (dose: 12.5 mg/kg/injection, schedule: Q01DX009 (ip), vehicle: saline with Tween-80) 177 % of control; (dose: 12.5 mg/kg/injection, schedule: Q04DX003 (ip), vehicle: saline) 165 % of control; (dose: 25.0 mg/kg/injection, schedule: Q01DX009 (ip), vehicle: saline with Tween-80) 268 % of control; (dose: 33.0 mg/kg/injection, schedule: Q04DX003 (ip), vehicle: saline with Tween-80) 113 % of control. Moreover, the T/C under setting [4] is 90 % of control.
Consider `Nc1ncnc2c1nnn2CC(O)CO` (stereo unspecified), for which the T/C (dose: 60.0 mg/kg/injection, schedule: Q01DX005 (ip), vehicle: Klucel (hydroxypropylcellulose) (HPC)) is 99 % of control and the T/C (dose: 120.0 mg/kg/injection, schedule: Q01DX005 (ip), vehicle: Klucel (hydroxypropylcellulose) (HPC)) is 92 % of control.
As for `Cc1nc2c([N+](=O)[O-])cccc2c2ccccc12`, the T/C was 94 % of control under setting [5], 89 % of control under setting [6] and 98 % of control under setting [7].
Consider `CCOC1(NC(=O)N(C)C)C2CCCCC21` (stereo unspecified), for which the T/C reads like this: under setting [1], 98 % of control; under setting [2], 104 % of control; under setting [3], 101 % of control.
For the molecule `C#CCOCC(O)CCl` (stereo unspecified), the T/C under setting [8] is 90 % of control and the T/C (dose: 200.0 mg/kg/injection, schedule: Q01DX009 (ip), vehicle: saline) was 105 % of control.
Take `CCCCCC(/C=C/C1C(O[Si](C)(C)C(C)(C)C)CC(N(C)C)C1(C/C=C/CCCC(=O)OC)S(=O)(=O)c1ccccc1)O[Si](C)(C)C(C)(C)C` (stereo unspecified): the T/C reads like this: under setting [5], 91 % of control; under setting [6], 88 % of control; under setting [7], 89 % of control.
With `O=C1CCC2(O)[C@@H]3Cc4ccc(O)c5c4[C@]2(CCN3Cc2ccoc2)C1O5` (stereo partly specified), the T/C is, setting by setting: (dose: 50.0 mg/kg/injection, schedule: Q01DX009 (ip), vehicle: saline) 124 % of control; (dose: 66.0 mg/kg/injection, schedule: Q01DX009 (ip), vehicle: saline) 107 % of control and 91 % of control; under setting [8], 105 % of control and 121 % of control and 96 % of control; (dose: 150.0 mg/kg/injection, schedule: Q01DX009 (ip), vehicle: saline) 98 % of control and 116 % of control.
For `O=C(O)c1ccc(C(=O)NCCCN(CCCCN(CCCNC(=O)c2ccc(C(=O)O)c(O)c2O)C(=O)c2ccc(C(=O)O)c(O)c2O)C(=O)c2ccc(C(=O)O)c(O)c2O)c(O)c1O`, the T/C by setting is: (dose: 50.0 mg/kg/injection, schedule: Q01DX005 (ip), vehicle: saline) 99 % of control; (dose: 100.0 mg/kg/injection, schedule: Q01DX005 (ip), vehicle: saline) 101 % of control; (dose: 200.0 mg/kg/injection, schedule: Q01DX005 (ip), vehicle: saline) 99 % of control.
Regarding `Cc1ncc(CSC(=N)N)n1Cc1ccccc1`, the T/C (dose: 8.5 mg/kg/injection, schedule: Q01DX009 (ip), vehicle: saline) was 115 % of control.
